How the values were obtained:
FLT3-ITD = molecular target: T1, FLT3-ITD (Homo sapiens, UniProt P36888); assay: AlphaScreen kinase assay with recombinant enzyme, FLT3-ITD; assay type: biochemical; conditions: 8pt; read-out: FLT3_ITD 8pt: IC50
T1 sequence (P36888 1-993): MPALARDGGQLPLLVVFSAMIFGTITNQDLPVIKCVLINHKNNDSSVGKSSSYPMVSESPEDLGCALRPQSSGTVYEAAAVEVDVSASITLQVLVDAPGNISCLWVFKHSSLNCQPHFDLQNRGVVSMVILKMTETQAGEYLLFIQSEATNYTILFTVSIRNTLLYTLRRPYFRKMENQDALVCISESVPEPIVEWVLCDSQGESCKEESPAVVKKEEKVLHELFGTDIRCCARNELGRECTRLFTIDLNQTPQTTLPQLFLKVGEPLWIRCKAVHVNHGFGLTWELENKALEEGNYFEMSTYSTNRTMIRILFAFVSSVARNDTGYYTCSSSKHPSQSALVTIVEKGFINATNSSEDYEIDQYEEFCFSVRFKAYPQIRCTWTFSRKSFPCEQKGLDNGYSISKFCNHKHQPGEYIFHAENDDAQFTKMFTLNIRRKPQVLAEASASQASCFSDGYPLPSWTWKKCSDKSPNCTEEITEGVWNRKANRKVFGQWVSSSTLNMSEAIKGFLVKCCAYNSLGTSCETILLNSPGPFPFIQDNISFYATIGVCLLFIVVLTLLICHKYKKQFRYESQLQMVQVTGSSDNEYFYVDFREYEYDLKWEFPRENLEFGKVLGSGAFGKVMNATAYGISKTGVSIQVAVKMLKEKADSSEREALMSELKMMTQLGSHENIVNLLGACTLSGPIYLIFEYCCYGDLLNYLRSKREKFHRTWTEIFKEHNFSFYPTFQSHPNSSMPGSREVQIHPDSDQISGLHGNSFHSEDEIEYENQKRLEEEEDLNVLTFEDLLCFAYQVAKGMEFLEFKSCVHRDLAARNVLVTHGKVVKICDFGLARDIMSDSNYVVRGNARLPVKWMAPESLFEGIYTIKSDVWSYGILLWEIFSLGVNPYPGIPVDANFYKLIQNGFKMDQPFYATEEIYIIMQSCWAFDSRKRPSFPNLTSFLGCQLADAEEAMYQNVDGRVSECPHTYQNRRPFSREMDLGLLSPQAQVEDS
How it was run: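 Recombinant kinase phosphorylates biotinylated poly(Glu4-Tyr) peptide (30 nM final); streptavidin donor and anti-phosphotyrosine PY20 acceptor beads (10 μg/mL final) give a 580 nm proximity signal on 680 nm excitation. IC50 determinations used a final concentration of 10 μM for FLT3-D835Y/FLT3-ITD and 100 μM for c-KIT.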

[1] = system: MOLM-14 F691L cells, FLT3 ITD and FLT3 F691L; assay: Cell proliferation assay (CellTiter-Glo), MOLM-14 F691L; assay type: cell-based; conditions: Homo sapiens, 72 h, 3d-Growth, GMean
Text: The FLT3 inhibitors may be assessed using the MOLM-14, Acute Myeloid Leukemia cell line that endogenously expresses FLT3 ITD or derivatives of the human FLT3 AML cell line which acquired the D835Y (activation loop) of F691L (gatekeeper) mutation after selection in escalating doses of the FLT3 Inhibitor AC220. FLT3 inhibitors may also be assessed using cells that are engineered to express mutant FLT3. For engineered cells, murine Ba/F3 cells were transfected with full-length FLT3 ITD/D835Y mutations. The parental BA/F3 cells are dependent upon Interleukin-3 (IL-3) for survival, and introduction of the FLT3 constructs rendered these cells dependent upon FLT3 kinase activity when cultured in the absences of IL-3. Engineered BA/F3 cell growth assays can be performed in either the […] of IL-3, to assess the compound inhibition of FLT3 or to detect the presence of off-target activity, respectively. Inhibitors of FLT3 kinase activity reduce or eliminate the FLT3 oncogenic signaling, resulting in reduced cell proliferation. This inhibition is measured as a function of compound concentration to asses IC50 values.
Cell lines used in proliferation assays are as follows in Table 3:
Cells were seeded at 1×10^4 cells per well of a 96 well cell culture plate in 50 μl of cell culture medium. Compounds were dissolved in DMSO, typically at a concentration of 0.5 mM and were serially diluted 1:3 for a total of eight points and added to the cells to final concentrations of […], 0.0041, 0.0014 and 0.00046 μM in 100 μl cell culture medium (final concentration 0.2% DMSO). […] The cells were incubated at 37° C., 5% CO2 for three days. CellTiter-Glo Buffer (Promega Cell Viability Assay catalog #G7573) and substrate were equilibrated to room temperature, and enzyme/substrate Recombinant Firefly Luciferase/Beetle Luciferin was reconstituted. The cell plates were equilibrated to room temperature for 30 minutes, then lysed by addition of an equivalent volume of the Celltiter-Glo Reagent. The plate was mixed for 10 minutes on a plate shaker to lyse the cells. The plates were read on a Tecan M1000 using Luminescence protocol modified to read 0.1 s per well. The luminescence reading assesses the ATP content, which correlates directly with cell number such that the reading as a function of compound concentration was used to determine the IC50 value.

Work on `CC(C)(C#N)NC(=O)c1cccc(-c2cnc3[nH]c(-c4cnn(C5CC5)c4)cc3c2)n1` [Compound P-0165, N-(1-cyano-1-methyl-ethyl)-6-[2-(1-cyclopropylpyrazol-4-yl)-1H-pyrrolo[2,3-b]pyridin-5-yl]pyridine-2-carboxamide] yielded an IC50 (FLT3-ITD) of 0.0001 to 10 µM and an IC50 [1] of 0.0001 to 10 µM.

Work on `N#C[C@@H]1CCN(C(=O)c2cccc(-c3cnc4[nH]c(-c5ccccc5)cc4c3)n2)C1` [Compound P-0122, (3R)-1-[6-(2-phenyl-1H-pyrrolo[2,3-b]pyridin-5-yl)pyridine-2-carbonyl]pyrrolidine-3-carbonitrile] yielded an IC50 (FLT3-ITD) of 0.0001 to 10 µM and an IC50 [1] of 0.0001 to 10 µM.

In the case of `CC(C)(C#N)NC(=O)c1cccc(-c2cnc3[nH]c(C#Cc4ccccc4)cc3c2)n1` [Compound P-0176, N-(1-cyano-1-methyl-ethyl)-6-[2-(2-phenylethynyl)-1H-pyrrolo[2,3-b]pyridin-5-yl]pyridine-2-carboxamide], the IC50 (FLT3-ITD) is reported as 0.0001 to 10 µM and the IC50 [1] is reported as 0.0001 to 10 µM.

For `CC(C)(O)CNC(=O)c1cccc(-c2cnc3[nH]c(-c4ccccc4)cc3c2)n1` [Compound P-0150, N-(2-hydroxy-2-methyl-propyl)-6-(2-phenyl-1H-pyrrolo[2,3-b]pyridin-5-yl)pyridine-2-carboxamide], the IC50 (FLT3-ITD) was 0.0001 to 10 µM and the IC50 [1] was 0.0001 to 10 µM.

`N#CC1CCN(C(=O)c2cccc(-c3cnc4[nH]c(-c5cnn(C(F)F)c5)cc4c3)n2)C1` (stereo not shown) [Compound P-0134, 1-[6-[2-[1-(difluoromethyl)pyrazol-4-yl]-1H-pyrrolo[2,3-b]pyridin-5-yl]pyridine-2-carbonyl]pyrrolidine-3-carbonitrile] was tested, and the IC50 (FLT3-ITD) was 0.0001 to 10 µM and the IC50 [1] was 0.0001 to 10 µM.

`CC(C)(C#N)CNC(=O)c1cccc(-c2cnc3[nH]c(C4=CC[S+]([O-])CC4)cc3c2)n1` (stereo not shown) [Compound P-0161, N-(2-cyano-2-methyl-propyl)-6-[2-(1-oxo-3,6-dihydro-2H-thiopyran-4-yl)-1H-pyrrolo[2,3-b]pyridin-5-yl]pyridine-2-carboxamide] was tested, and the IC50 (FLT3-ITD) was 0.0001 to 10 µM and the IC50 [1] was 0.0001 to 10 µM.

`CC(C)(C#N)CNC(=O)c1cccc(-c2cnc3[nH]c(-c4cnn(CC(F)(F)F)c4)cc3c2)n1` [Compound P-0113, N-(2-cyano-2-methyl-propyl)-6-[2-[1-(2,2,2-trifluoroethyl)pyrazol-4-yl]-1H-pyrrolo[2,3-b]pyridin-5-yl]pyridine-2-carboxamide] gave an IC50 (FLT3-ITD) of 0.0001 to 10 µM and an IC50 [1] of 0.0001 to 10 µM.

In the case of `CC(C)(C#N)NC(=O)c1cccc(-c2cnc3[nH]c(-c4cnn(C5CCOC5)c4)cc3c2)n1` (stereo not shown) [Compound P-0173, N-(1-cyano-1-methyl-ethyl)-6-[2-(1-tetrahydrofuran-3-ylpyrazol-4-yl)-1H-pyrrolo[2,3-b]pyridin-5-yl]pyridine-2-carboxamide], the IC50 (FLT3-ITD) is reported as 0.0001 to 10 µM and the IC50 [1] is reported as 0.0001 to 10 µM.

With `CC(C)(C#N)NC(=O)c1cccc(-c2cnc3[nH]c(C4=CCN(S(=O)(=O)C5CC5)CC4)cc3c2)n1` [Compound P-0188, N-(1-cyano-1-methyl-ethyl)-6-[2-(1-cyclopropylsulfonyl-3,6-dihydro-2H-pyridin-4-yl)-1H-pyrrolo[2,3-b]pyridin-5-yl]pyridine-2-carboxamide] the IC50 (FLT3-ITD) was 0.0001 to 10 µM and the IC50 [1] was 0.0001 to 10 µM.

Compound `CC(C)(C#N)NC(=O)c1cccc(-c2cnc3[nH]c(C4=CCN(C(=O)C5CC5)CC4)cc3c2)n1` [Compound P-0181, N-(1-cyano-1-methyl-ethyl)-6-[2-[1-(cyclopropanecarbonyl)-3,6-dihydro-2H-pyridin-4-yl]-1H-pyrrolo[2,3-b]pyridin-5-yl]pyridine-2-carboxamide] has an IC50 (FLT3-ITD) of 0.0001 to 10 µM and an IC50 [1] of 0.0001 to 10 µM.

With `CC(C)(C#N)CNC(=O)c1cccc(-c2cnc3[nH]c(C4=CCN(C(=O)C5CC5)C4)cc3c2)n1` [Compound P-0141, N-(2-cyano-2-methyl-propyl)-6-[2-[1-(cyclopropanecarbonyl)-2,5-dihydropyrrol-3-yl]-1H-pyrrolo[2,3-b]pyridin-5-yl]pyridine-2-carboxamide] the IC50 (FLT3-ITD) was 0.0001 to 10 µM and the IC50 [1] was 0.0001 to 10 µM.

Work on `CC(C)(C#N)CNC(=O)c1cccc(-c2cnc3[nH]c(C4=CCC(F)(F)CC4)cc3c2)n1` [Compound P-0157, N-(2-cyano-2-methyl-propyl)-6-[2-(4,4-difluorocyclohexen-1-yl)-1H-pyrrolo[2,3-b]pyridin-5-yl]pyridine-2-carboxamide] yielded an IC50 (FLT3-ITD) of 0.0001 to 10 µM and an IC50 [1] of 0.0001 to 10 µM.

Work on `N#CC1CCN(C(=O)c2cccc(-c3cnc4[nH]c(C5=CCOCC5)cc4c3)n2)C1` (stereo not shown) [Compound P-0132, 1-[6-[2-(3,6-dihydro-2H-pyran-4-yl)-1H-pyrrolo[2,3-b]pyridin-5-yl]pyridine-2-carbonyl]pyrrolidine-3-carbonitrile] yielded an IC50 (FLT3-ITD) of 0.0001 to 10 µM and an IC50 [1] of 0.0001 to 10 µM.

Compound `CC(C)(C#N)NC(=O)c1cccc(-c2cnc3[nH]c(-c4ccccc4)cc3c2)n1` [Compound P-0118, N-(1-cyano-1-methyl-ethyl)-6-(2-phenyl-1H-pyrrolo[2,3-b]pyridin-5-yl)pyridine-2-carboxamide] has an IC50 (FLT3-ITD) of 0.0001 to 10 µM and an IC50 [1] of 0.0001 to 10 µM.

With `CC(C)(C#N)CNC(=O)c1cccc(-c2cnc3[nH]c(C4=CCS(=O)(=O)CC4)cc3c2)n1` [Compound P-0160, N-(2-cyano-2-methyl-propyl)-6-[2-(1,1-dioxo-3,6-dihydro-2H-thiopyran-4-yl)-1H-pyrrolo[2,3-b]pyridin-5-yl]pyridine-2-carboxamide] the IC50 (FLT3-ITD) was 0.0001 to 10 µM and the IC50 [1] was 0.0001 to 10 µM.

Compound `CC(C)(C)NC(=O)c1cccc(-c2cnc3[nH]c(-c4ccccc4)cc3c2)n1` [Compound P-0140, N-tert-butyl-6-(2-phenyl-1H-pyrrolo[2,3-b]pyridin-5-yl)pyridine-2-carboxamide] has an IC50 (FLT3-ITD) of 0.0001 to 10 µM and an IC50 [1] of 0.0001 to 10 µM.

`Cc1nc(C(C)C)sc1-c1cc2cc(-c3cccc(C(=O)NC(C)(C)C#N)n3)cnc2[nH]1` [Compound P-0169, N-(1-cyano-1-methyl-ethyl)-6-[2-(2-isopropyl-4-methyl-thiazol-5-yl)-1H-pyrrolo[2,3-b]pyridin-5-yl]pyridine-2-carboxamide] was tested, and the IC50 (FLT3-ITD) was 0.0001 to 10 µM and the IC50 [1] was 0.0001 to 10 µM.

Work on `N#CC1(CNC(=O)c2cccc(-c3cnc4[nH]c(-c5ccccc5)cc4c3)n2)CC1` [Compound P-0137, N-[(1-cyanocyclopropyl)methyl]-6-(2-phenyl-1H-pyrrolo[2,3-b]pyridin-5-yl)pyridine-2-carboxamide] yielded an IC50 (FLT3-ITD) of 0.0001 to 10 µM and an IC50 [1] of 0.0001 to 10 µM.

Compound `O=C(NC1(C(F)(F)F)CC1)c1cccc(-c2cnc3[nH]c(-c4ccccc4)cc3c2)n1` [Compound P-0156, 6-(2-phenyl-1H-pyrrolo[2,3-b]pyridin-5-yl)-N-[1-(trifluoromethyl)cyclopropyl]pyridine-2-carboxamide] has an IC50 (FLT3-ITD) of 0.0001 to 10 µM and an IC50 [1] of 0.0001 to 10 µM.

`CC(C)(C#N)NC(=O)c1cccc(-c2cnc3[nH]c(C4=CCNCC4)cc3c2)n1` [Compound P-0182, N-(1-cyano-1-methyl-ethyl)-6-[2-(1,2,3,6-tetrahydropyridin-4-yl)-1H-pyrrolo[2,3-b]pyridin-5-yl]pyridine-2-carboxamide] showed an IC50 (FLT3-ITD) of 0.0001 to 10 µM and an IC50 [1] of 0.0001 to 10 µM.

Reference: US9938273B2 (Plexxikon Inc., priority 2015, dated 2018)
